In test [1] the target is T1, Protein mono-ADP-ribosyltransferase PARP3 (Homo sapiens, UniProt Q9Y6F1).
T1 sequence (Q9Y6F1 whole entry): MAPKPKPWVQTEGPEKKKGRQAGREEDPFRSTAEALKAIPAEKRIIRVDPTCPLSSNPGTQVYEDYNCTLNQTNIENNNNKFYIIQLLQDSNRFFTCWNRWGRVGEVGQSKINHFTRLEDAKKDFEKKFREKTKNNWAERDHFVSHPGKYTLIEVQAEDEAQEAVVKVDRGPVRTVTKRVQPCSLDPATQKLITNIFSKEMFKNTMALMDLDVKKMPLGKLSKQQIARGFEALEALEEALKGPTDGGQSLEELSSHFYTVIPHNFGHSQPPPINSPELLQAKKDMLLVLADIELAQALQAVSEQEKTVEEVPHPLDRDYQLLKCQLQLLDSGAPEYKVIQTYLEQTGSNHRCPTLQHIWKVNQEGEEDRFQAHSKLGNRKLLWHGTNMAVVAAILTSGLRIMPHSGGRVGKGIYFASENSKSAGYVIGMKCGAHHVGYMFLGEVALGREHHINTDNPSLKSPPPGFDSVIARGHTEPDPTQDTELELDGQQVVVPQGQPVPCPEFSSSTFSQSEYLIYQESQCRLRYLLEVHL
Put plainly: Inhibition of human ARTD3 by fluorescence analysis.

The target of test [2] is Protein mono-ADP-ribosyltransferase PARP4 (Homo sapiens, UniProt Q9UKK3). The test is described as follows: Inhibition of human ARTD4 by fluorescence analysis.
Chain of Protein mono-ADP-ribosyltransferase PARP4 (Q9UKK3 whole entry): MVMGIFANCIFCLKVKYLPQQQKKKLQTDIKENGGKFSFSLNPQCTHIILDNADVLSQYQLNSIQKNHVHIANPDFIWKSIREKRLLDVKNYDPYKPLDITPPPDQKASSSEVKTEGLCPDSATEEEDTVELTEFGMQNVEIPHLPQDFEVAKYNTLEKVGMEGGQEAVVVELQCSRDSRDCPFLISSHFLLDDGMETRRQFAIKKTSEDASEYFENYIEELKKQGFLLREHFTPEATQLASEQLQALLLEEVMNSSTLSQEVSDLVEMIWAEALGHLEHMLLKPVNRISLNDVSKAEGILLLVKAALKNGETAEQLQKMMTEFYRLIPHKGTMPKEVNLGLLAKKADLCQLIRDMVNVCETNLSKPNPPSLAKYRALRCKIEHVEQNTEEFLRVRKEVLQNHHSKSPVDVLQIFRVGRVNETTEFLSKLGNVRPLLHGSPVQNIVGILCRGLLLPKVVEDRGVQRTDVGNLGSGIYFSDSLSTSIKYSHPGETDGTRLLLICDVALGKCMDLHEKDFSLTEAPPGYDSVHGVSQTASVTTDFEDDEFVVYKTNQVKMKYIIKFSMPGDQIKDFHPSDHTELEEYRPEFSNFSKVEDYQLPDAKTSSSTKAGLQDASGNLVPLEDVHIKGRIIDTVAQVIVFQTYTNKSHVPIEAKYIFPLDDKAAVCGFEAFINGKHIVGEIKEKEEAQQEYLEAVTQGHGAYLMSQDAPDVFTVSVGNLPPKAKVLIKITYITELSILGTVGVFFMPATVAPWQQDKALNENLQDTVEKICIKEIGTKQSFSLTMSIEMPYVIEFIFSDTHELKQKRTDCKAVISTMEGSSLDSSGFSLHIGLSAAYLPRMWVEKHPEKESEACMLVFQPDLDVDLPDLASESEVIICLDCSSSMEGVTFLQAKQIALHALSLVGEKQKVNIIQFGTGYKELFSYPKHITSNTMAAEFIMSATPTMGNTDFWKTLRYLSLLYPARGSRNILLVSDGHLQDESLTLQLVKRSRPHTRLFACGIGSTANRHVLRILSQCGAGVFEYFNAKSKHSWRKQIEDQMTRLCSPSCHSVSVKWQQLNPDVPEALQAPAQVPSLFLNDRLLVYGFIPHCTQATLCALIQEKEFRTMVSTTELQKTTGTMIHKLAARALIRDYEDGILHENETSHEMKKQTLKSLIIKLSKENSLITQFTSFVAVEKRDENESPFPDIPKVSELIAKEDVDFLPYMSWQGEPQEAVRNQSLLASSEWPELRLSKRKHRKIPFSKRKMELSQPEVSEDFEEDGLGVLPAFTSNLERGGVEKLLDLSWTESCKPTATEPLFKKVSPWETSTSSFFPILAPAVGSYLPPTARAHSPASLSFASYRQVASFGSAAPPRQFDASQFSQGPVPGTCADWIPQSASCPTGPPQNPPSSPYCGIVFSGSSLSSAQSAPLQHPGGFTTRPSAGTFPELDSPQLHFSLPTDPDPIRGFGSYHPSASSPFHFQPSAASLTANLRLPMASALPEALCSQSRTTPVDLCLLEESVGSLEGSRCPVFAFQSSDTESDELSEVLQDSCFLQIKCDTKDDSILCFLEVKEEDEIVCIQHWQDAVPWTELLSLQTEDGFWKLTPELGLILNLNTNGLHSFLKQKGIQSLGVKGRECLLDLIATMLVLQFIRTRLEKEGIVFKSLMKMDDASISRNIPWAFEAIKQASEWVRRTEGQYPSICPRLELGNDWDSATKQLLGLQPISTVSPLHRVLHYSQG
Test [3] concerns the target T2, Protein mono-ADP-ribosyltransferase PARP10 (Homo sapiens, UniProt Q53GL7).
T2 sequence (Q53GL7 whole entry): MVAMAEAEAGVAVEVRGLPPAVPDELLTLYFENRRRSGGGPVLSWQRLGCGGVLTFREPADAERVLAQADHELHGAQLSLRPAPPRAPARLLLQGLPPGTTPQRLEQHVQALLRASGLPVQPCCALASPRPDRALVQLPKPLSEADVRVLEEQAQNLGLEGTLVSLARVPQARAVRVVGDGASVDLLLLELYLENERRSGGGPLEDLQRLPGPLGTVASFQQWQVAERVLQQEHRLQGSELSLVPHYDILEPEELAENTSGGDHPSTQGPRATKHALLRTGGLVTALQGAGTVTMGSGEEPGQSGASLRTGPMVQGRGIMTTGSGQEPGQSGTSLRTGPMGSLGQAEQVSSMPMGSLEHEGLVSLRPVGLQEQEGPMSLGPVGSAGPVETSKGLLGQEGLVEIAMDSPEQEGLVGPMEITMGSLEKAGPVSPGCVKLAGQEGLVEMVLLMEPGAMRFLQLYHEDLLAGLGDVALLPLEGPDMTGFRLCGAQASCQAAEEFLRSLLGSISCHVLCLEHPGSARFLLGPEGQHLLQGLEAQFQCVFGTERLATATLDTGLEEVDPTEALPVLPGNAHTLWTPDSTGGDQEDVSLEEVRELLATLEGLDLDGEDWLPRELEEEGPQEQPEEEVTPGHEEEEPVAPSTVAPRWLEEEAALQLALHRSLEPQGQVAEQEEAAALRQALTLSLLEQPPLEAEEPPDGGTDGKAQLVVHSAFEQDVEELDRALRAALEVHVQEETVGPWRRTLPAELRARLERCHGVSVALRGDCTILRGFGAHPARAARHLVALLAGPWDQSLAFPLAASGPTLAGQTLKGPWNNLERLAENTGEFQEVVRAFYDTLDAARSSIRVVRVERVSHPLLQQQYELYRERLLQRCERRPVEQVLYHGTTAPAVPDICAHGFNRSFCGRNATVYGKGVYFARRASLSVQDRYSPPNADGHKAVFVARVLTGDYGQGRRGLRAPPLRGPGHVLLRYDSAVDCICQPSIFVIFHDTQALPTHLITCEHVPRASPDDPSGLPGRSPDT
Put plainly: Inhibition of human ARTD10 by fluorescence analysis.

Test [4] deals with T3, Poly [ADP-ribose] polymerase tankyrase-1 (Homo sapiens, UniProt O95271).
T3 sequence (O95271 whole entry): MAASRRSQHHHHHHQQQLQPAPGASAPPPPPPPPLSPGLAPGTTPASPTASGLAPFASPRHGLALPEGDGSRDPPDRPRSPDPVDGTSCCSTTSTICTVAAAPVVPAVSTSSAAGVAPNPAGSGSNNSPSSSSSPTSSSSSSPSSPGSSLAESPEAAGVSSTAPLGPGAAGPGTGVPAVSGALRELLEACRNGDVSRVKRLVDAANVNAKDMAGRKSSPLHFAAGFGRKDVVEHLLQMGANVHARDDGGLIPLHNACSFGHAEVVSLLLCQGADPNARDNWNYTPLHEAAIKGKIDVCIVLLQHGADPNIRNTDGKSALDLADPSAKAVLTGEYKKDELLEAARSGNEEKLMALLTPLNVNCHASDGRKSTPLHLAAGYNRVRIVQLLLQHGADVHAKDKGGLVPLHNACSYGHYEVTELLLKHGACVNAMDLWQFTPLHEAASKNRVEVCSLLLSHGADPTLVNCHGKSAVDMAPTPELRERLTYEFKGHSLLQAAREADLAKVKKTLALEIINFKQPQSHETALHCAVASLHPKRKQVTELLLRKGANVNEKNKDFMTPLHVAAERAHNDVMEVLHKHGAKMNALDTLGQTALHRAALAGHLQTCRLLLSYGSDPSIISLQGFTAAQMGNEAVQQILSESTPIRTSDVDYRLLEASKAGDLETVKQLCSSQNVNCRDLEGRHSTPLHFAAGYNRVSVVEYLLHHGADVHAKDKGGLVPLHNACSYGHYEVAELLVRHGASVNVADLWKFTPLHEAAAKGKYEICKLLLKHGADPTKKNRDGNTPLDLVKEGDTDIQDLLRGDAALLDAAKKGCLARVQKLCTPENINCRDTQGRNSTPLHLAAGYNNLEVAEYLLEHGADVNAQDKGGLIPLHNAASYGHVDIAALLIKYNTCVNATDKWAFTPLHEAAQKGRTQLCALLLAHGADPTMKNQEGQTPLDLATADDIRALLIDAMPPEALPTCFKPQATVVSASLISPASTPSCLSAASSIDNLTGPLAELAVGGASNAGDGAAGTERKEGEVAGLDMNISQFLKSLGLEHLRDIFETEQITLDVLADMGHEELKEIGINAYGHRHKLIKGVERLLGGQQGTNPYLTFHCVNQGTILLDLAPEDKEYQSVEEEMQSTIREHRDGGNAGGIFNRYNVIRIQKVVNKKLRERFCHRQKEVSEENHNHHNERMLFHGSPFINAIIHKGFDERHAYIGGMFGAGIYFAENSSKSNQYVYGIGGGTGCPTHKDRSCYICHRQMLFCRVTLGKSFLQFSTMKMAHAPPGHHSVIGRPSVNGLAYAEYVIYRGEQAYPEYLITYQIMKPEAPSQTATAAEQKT
Put plainly: Inhibition of human TNKS1 by fluorescence analysis.

SMILES strings stand for the structures. A value given as a limit tells only on which side of the number the result lay.

For orientation: IC50 means the point on the concentration scale where inhibition reaches its midpoint. Low values mean greater potency, high ones weaker potency. On to `COc1ccc(C2(CNC(=O)c3ccc(NC(=O)c4ccco4)cc3Cl)CCOCC2)cc1`, for which the 50% inhibitory concentration (IC50) in test [1] was above 100 µM; in test [2] it was above 100 µM; in test [3], above 10 µM; in test [4] it was 0.57 µM.
